ChEMBL document CHEMBL1833839, “Discovery of potent and novel S-nitrosoglutathione reductase inhibitors devoid of cytochrome P450 activities” (Bioorg Med Chem Lett, 2011)
Calls of active or inactive are those of the source. The rule behind the calls is not given here.

Experiments:
[1] = Inhibition of S-nitrosoglutathione reductase expressed in Escherichia coli after 3 mins by UV/Vis spectrophotometry
[2] = target: T1, CYP1A2 (Homo sapiens, UniProt P05177); experiment: Inhibition of CYP1A2 at 10 uM; type: ADME
T1 sequence (P05177 whole entry): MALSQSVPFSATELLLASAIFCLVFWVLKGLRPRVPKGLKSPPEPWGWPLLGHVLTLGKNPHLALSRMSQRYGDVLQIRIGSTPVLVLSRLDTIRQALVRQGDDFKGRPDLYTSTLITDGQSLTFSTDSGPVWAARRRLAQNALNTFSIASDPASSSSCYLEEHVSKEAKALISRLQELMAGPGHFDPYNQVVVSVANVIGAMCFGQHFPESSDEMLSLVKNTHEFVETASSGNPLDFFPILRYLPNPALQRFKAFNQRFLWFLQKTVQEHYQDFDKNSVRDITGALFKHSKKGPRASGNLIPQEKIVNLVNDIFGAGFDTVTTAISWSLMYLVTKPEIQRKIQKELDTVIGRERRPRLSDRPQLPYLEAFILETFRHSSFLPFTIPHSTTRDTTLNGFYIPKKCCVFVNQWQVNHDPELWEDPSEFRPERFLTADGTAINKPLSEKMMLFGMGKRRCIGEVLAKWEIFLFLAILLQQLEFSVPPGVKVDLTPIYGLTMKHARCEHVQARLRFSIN

[3] = target: CYP2C9 (Homo sapiens, UniProt P11712); experiment: Inhibition of CYP2C9 at 10 uM; type: ADME
[4] = target: CYP2C19 (Homo sapiens, UniProt P33261); experiment: Inhibition of CYP2C19 at 10 uM; type: ADME
[5] = target: CYP2D6 (Homo sapiens, UniProt P10635); experiment: Inhibition of CYP2D6 at 10 uM; type: ADME
[6] = target: CYP3A4 (Homo sapiens, UniProt P08684); experiment: Inhibition of CYP3A4 at 10 uM; type: ADME
[7] = target: Mu-type opioid receptor (Homo sapiens) (UniProt P35372); experiment: Binding affinity to human recombinant mu opioid receptor at 10 uM by radioligand displacement assay
[8] = target: Cytochrome P450 2C19 (Homo sapiens, UniProt P33261); experiment: Inhibition of CYP2C19; type: ADME
[9] = species: Homo sapiens; experiment: Binding affinity to human recombinant delta2 opiate receptor by radioligand displacement assay

Chain of CYP3A4 (P08684 whole entry): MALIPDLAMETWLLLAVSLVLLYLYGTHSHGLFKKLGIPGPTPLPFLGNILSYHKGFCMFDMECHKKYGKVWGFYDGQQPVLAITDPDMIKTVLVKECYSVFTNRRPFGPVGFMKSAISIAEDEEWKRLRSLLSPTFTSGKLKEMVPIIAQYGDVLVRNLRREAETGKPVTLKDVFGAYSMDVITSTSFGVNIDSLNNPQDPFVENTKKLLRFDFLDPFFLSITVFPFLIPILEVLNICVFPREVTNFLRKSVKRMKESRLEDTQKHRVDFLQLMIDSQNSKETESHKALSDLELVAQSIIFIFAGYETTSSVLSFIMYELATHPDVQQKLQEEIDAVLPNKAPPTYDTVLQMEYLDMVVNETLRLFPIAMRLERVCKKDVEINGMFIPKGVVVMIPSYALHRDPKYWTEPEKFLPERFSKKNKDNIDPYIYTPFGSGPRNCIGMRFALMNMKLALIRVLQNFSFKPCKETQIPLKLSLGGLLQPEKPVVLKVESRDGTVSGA
Chain of CYP2C19 (P33261 whole entry): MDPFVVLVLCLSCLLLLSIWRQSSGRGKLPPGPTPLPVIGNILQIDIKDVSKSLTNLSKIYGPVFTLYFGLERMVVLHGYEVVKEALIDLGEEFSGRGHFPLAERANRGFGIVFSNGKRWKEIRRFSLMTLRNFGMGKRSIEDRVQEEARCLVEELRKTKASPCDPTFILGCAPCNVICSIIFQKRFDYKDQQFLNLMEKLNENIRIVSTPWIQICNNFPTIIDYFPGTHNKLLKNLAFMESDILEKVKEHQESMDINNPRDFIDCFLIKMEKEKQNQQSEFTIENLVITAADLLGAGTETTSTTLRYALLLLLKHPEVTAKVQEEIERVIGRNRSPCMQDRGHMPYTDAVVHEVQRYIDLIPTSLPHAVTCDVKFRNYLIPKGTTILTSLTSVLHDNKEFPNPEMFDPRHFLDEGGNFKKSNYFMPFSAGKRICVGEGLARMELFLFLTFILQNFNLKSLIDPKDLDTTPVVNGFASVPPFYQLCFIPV
Chain of CYP2D6 (P10635 whole entry): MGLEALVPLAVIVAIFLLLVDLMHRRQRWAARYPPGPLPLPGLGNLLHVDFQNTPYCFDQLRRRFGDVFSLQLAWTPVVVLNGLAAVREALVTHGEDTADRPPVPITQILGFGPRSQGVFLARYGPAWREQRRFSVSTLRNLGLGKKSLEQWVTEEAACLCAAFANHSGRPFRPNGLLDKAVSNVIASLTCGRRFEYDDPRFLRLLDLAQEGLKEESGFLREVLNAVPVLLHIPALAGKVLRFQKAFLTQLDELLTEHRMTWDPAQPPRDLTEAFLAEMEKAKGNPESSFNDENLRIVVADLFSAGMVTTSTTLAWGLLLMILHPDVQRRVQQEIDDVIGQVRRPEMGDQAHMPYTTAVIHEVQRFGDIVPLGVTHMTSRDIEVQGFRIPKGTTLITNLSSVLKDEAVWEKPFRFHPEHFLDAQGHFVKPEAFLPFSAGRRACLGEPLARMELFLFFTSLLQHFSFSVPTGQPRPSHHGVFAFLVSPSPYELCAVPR
Chain of CYP2C9 (P11712 whole entry): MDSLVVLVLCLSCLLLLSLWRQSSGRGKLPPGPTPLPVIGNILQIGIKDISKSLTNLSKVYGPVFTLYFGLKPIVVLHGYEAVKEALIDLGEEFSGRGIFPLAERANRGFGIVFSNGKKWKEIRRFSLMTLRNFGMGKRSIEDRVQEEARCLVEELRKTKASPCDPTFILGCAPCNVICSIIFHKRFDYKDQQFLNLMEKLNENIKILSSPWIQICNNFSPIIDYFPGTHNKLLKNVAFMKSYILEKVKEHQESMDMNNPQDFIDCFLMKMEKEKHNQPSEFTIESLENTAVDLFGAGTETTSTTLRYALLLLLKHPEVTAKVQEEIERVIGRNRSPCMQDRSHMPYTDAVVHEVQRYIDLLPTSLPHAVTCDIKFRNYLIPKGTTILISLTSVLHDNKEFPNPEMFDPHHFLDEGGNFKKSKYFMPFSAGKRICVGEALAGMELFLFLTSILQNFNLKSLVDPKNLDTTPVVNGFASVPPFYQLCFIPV
Chain of Mu-type opioid receptor (Homo sapiens) (P35372 whole entry): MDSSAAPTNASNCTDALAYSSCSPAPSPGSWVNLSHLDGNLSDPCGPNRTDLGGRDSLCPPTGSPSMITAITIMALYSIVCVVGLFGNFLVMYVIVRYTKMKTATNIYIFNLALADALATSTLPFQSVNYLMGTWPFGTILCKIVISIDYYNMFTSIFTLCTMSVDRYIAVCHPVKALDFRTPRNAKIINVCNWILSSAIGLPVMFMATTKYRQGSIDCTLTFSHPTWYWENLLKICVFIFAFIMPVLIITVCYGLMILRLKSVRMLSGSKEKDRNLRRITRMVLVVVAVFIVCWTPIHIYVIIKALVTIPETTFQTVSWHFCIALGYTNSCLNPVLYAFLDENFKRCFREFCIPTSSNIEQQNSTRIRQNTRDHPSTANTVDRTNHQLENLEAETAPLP
Chain of Cytochrome P450 2C19 (P33261 whole entry): as the sequence (P33261 whole entry) above

Row | SMILES | IC50 ([1]; read-out: IC50) | further results
1 | Cc1cc(C(N)=O)ccc1-n1c(CCC(=O)O)ccc1-c1ccc(-c2ccnn2C)cc1 | 0.68 µM | 
2 | Cc1cc(C(N)=O)ccc1-n1c(CCC(=O)O)ccc1-c1cc(-n2ccnc2C)cs1 |  | inhibition at 10 µM [2]: -11%; inhibition at 10 µM [3]: 13%; inhibition at 10 µM [4]: 11%; inhibition at 10 µM [5]: 12%; inhibition at 10 µM [6]: 18%; inhibition [7]: 69%
3 | Cc1cc(C(N)=O)ccc1-n1c(CCC(=O)O)ccc1-c1ccc(-c2cnn(C)c2)cc1 | 5.14 µM | 
4 | Cc1cc(C(N)=O)ccc1-n1c(CCC(=O)O)ccc1-c1ccc(N2CCOCC2)cc1 | 8.17 µM | 
5 | Cc1cc(C(N)=O)ccc1-n1c(CCC(=O)O)ccc1-c1ccc(-c2ccccc2)cc1 | 6.16 µM | 
6 | Cc1cc(C(N)=O)ccc1-n1c(CCC(=O)O)ccc1-c1ccc(-n2ccnc2CO)cc1 | 2.31 µM | 
7 | Cc1cc(C(N)=O)ccc1-n1c(CCC(=O)O)ccc1-c1ccc(-n2ccnc2C(C)C)cc1 |  | IC50 [1]: Not Active
8 | Cc1cc(C(N)=O)ccc1-n1c(CCC(=O)O)ccc1-c1ccc(-c2ccco2)cc1 | 6.52 µM | 
9 | Cc1cc(C(N)=O)ccc1-n1c(CCC(=O)O)ccc1-c1ccc(-n2ccnc2C(F)(F)F)cc1 |  | IC50 [1]: Not Active
10 | Cc1cc(C(N)=O)ccc1-n1c(CCC(=O)O)ccc1-c1ccc(N2CCOC2=O)cc1 | 53.5 µM | 
11 | Cc1cc(C(N)=O)ccc1-n1c(CCC(=O)O)ccc1-c1ccc(-n2ccnc2)cc1 [N6022] | 0.02 µM | IC50 [8]: 770 nM; Activity [9]: inactive
12 | Cc1cc(C(N)=O)ccc1-n1c(CCC(=O)O)ccc1-c1ccc(-n2cnnc2)cc1 | 1.48 µM | 
13 | Cc1cc(C(N)=O)ccc1-n1c(CCC(=O)O)ccc1-c1ccc(-n2ccnc2)cn1 | 0.36 µM | 
14 | Cc1cc(C(N)=O)ccc1-n1c(CCC(=O)O)ccc1-c1cnc(-n2ccnc2)nc1 | 0.15 µM | 
15 | Cc1cc(C(N)=O)ccc1-n1c(CCC(=O)O)ccc1-c1ccc(-n2ccnc2C)s1 |  | inhibition at 10 µM [2]: -8%; inhibition at 10 µM [3]: 15%; inhibition at 10 µM [4]: 25%; inhibition at 10 µM [5]: 10%; inhibition at 10 µM [6]: 27%
16 | Cc1cc(C(N)=O)ccc1-n1c(CCC(=O)O)ccc1-c1cnc(-n2ccnc2)s1 | 1.57 µM | 
17 | Cc1cc(C(N)=O)ccc1-n1c(CCC(=O)O)ccc1-c1cc(-n2ccnc2)cs1 | 0.026 µM | 
18 | Cc1cc(C(N)=O)ccc1-n1c(CCC(=O)O)ccc1-c1ccc(-n2ccnc2)o1 | 0.9 µM | 
19 | Cc1cc(C(N)=O)ccc1-n1c(CCC(=O)O)ccc1-c1ccc(-c2cccnc2)cc1 | 23.9 µM | 
20 | Cc1cc(C(N)=O)ccc1-n1c(CCC(=O)O)ccc1-c1ccc(-n2ccnc2)s1 |  | inhibition at 10 µM [2]: 77%; inhibition at 10 µM [3]: 92%; inhibition at 10 µM [4]: 83%; inhibition at 10 µM [5]: 96%; inhibition at 10 µM [6]: 91%
21 | Cc1cc(C(N)=O)ccc1-n1c(CCC(=O)O)ccc1-c1ccc(-c2cncs2)cc1 | 0.76 µM | 

Row | SMILES | IC50 ([1]; read-out: IC50) | further results
22 | Cc1cc(C(N)=O)ccc1-n1c(CCC(=O)O)ccc1-c1ccc(-c2ccsc2)cc1 | 29.3 µM | 
23 | Cc1cc(C(N)=O)ccc1-n1c(CCC(=O)O)ccc1-c1ccc(-n2ccnc2C)cc1 | 0.075 µM | inhibition at 10 µM [2]: 11%; inhibition at 10 µM [3]: 20%; inhibition at 10 µM [4]: 55%; inhibition at 10 µM [5]: 11%; inhibition at 10 µM [6]: 31%
24 | Cc1cc(C(N)=O)ccc1-n1c(CCC(=O)O)ccc1-c1ccc(N2CCCCC2)cc1 | 8.78 µM | 
25 | Cc1cc(C(N)=O)ccc1-n1c(CCC(=O)O)ccc1-c1ccc(-c2cn[nH]c2)cc1 | 2.66 µM | 
26 | Cc1cc(C(N)=O)ccc1-n1c(CCC(=O)O)ccc1-c1csc(-n2ccnc2C)c1 | 0.048 µM | 
27 | Cc1cc(C(N)=O)ccc1-n1c(CCC(=O)O)ccc1-c1ccc(N2CCNC2=O)cc1 | 50.6 µM | 
28 | Cc1cc(C(N)=O)ccc1-n1c(CCC(=O)O)ccc1-c1ccc(N2CCCC2)cc1 | 11.8 µM | 
29 | Cc1cc(C(N)=O)ccc1-n1c(CCC(=O)O)ccc1-c1ccc(-n2cccn2)cc1 | 4.74 µM | 
30 | Cc1cc(C(N)=O)ccc1-n1c(CCC(=O)O)ccc1-c1ccc(-n2cnnn2)cc1 | 5.19 µM | 
31 | Cc1cc(C(N)=O)ccc1-n1c(CCC(=O)O)ccc1-c1ccc(-c2ccncc2)cc1 | 9.8 µM | 
32 | CCc1nccn1-c1ccc(-c2ccc(CCC(=O)O)n2-c2ccc(C(N)=O)cc2C)cc1 | 0.13 µM | inhibition at 10 µM [2]: 6%; inhibition at 10 µM [3]: 15%; inhibition at 10 µM [4]: 25%; inhibition at 10 µM [5]: 20%; inhibition at 10 µM [6]: 27%
33 | Cc1cc(C(N)=O)ccc1-n1c(CCC(=O)O)ccc1-c1ccc(N2CCNCC2)cc1 | 43.9 µM | 
34 | Cc1cn(-c2ccc(-c3ccc(CCC(=O)O)n3-c3ccc(C(N)=O)cc3C)cc2)cn1 | 6.25 µM | 
35 | Cc1cc(C(N)=O)ccc1-n1c(CCC(=O)O)ccc1-c1ccc(-n2cccc2)cc1 | 10.2 µM | 
36 | CCc1nccn1-c1ccc(-c2ccc(CCC(=O)O)n2-c2ccc(C(N)=O)cc2C)s1 | 0.048 µM | 
37 | Cc1cc(C(N)=O)ccc1-n1c(CCC(=O)O)ccc1-c1ccc(-c2ccoc2)cc1 | 0.51 µM | 
38 | Cc1cc(C(N)=O)ccc1-n1c(CCC(=O)O)ccc1-c1ccc(-n2ccnc2C2CC2)cc1 | 6.96 µM | 
39 | Cc1cc(C(N)=O)ccc1-n1c(CCC(=O)O)ccc1-c1ccc(-n2ccnc2)nc1 | 2.3 µM | 
40 | Cc1cc(C(N)=O)ccc1-n1c(CCC(=O)O)ccc1-c1ccc(-n2ccnn2)cc1 | 13.3 µM | 
41 | Cc1cc(C(N)=O)ccc1-n1c(CCC(=O)O)ccc1-c1ccc(-c2ccc(=O)[nH]c2)cc1 | 19 µM | 
42 | Cc1cc(C(N)=O)ccc1-n1c(CCC(=O)O)ccc1-c1ccc(-c2nnn[nH]2)cc1 | 1.75 µM | 
